What was measured:
Type in all cases: biochemical
[1] = target: recombinant human PI3Kδ (6-His(p110-p85α)) (Homo sapiens (Human), UniProt O00329); test: Enzymatic activity assay for recombinant human PI3Kδ (ADP-Glo); details: 0.6 nM PI3Kδ, 20 μM ATP, 80 μM DiC8-PIP2, ADP-Glo
Procedure: (§1) Enzymatic Activity Assay for Recombinant Human PI3K α, β, δ and γ.
(§2) The activity of recombinant human PI3Kγ ((aa144-1102)-6His) and PI3Kα, β, δ (6-His(p110-p85α)) was determined by measuring the ADP level after phosphorylation of DiC8-PIP2 using a commercially available ADP-Glo™ kit from Promega. The assay was carried out in white low volume 384 well plates in a final volume of 14 μl at R.T. The assay conditions contained the following: 50 mM Tris buffer pH 7.4, 2.1 mM DTT, 3 mM MgCl2, 0.05% CHAPS, 20 μM ATP, 80 μM DiC8-PIP2 and 1.2 nM PI3Kα, β, γ or 0.6 nM PI3Kδ. […] Routinely, inhibitors were pre-incubated with 3 μl of enzyme for 15 min prior to the addition of 2 μl substrate mixture for a further 60 min enzyme reaction. The phosphorylation was stopped with the addition of 3 μl ADP-Glo™ reagent (stop solution) followed by a 40 min incubation. Prior to detection 6 μl of ADP-Glo™ Kinase Detection Reagent was added and the plates were read in a micro plate reader using a Luminescence filter. All additions were followed by a short centrifugation step.

[2] = target: recombinant human PI3Kβ (6-His(p110-p85α)) (Homo sapiens (Human), UniProt P42338); test: Enzymatic activity assay for recombinant human PI3Kβ (ADP-Glo); details: 1.2 nM PI3Kβ, 20 μM ATP, 80 μM DiC8-PIP2, ADP-Glo
Procedure: as §1
as §2, with “PI3Kδ. Potential inhibitors were made up in DMSO and then diluted in the assay to give a final concentration of not exceeding 1% (v/v) DMSO.” for “PI3Kδ.”

[3] = target: recombinant human PI3Kα (6-His(p110-p85α)) (Homo sapiens (Human), UniProt P42336); test: Enzymatic activity assay for recombinant human PI3Kα (ADP-Glo); details: 1.2 nM PI3Kα, 20 μM ATP, 80 μM DiC8-PIP2, ADP-Glo
Procedure: as §1
as §2, with “PI3Kδ. Potential inhibitors were made up in DMSO and then diluted in the assay to give a final concentration of not exceeding 1% (v/v) DMSO.” for “PI3Kδ.”

[4] = target: recombinant human PI3Kγ ((aa144-1102)-6His) (Homo sapiens (Human), UniProt P48736); test: Enzymatic activity assay for recombinant human PI3Kγ (ADP-Glo); details: 1.2 nM PI3Kγ, 20 μM ATP, 80 μM DiC8-PIP2, ADP-Glo
Procedure: as §1, §2

Chain of recombinant human PI3Kγ ((aa144-1102)-6His) (P48736 144-1102): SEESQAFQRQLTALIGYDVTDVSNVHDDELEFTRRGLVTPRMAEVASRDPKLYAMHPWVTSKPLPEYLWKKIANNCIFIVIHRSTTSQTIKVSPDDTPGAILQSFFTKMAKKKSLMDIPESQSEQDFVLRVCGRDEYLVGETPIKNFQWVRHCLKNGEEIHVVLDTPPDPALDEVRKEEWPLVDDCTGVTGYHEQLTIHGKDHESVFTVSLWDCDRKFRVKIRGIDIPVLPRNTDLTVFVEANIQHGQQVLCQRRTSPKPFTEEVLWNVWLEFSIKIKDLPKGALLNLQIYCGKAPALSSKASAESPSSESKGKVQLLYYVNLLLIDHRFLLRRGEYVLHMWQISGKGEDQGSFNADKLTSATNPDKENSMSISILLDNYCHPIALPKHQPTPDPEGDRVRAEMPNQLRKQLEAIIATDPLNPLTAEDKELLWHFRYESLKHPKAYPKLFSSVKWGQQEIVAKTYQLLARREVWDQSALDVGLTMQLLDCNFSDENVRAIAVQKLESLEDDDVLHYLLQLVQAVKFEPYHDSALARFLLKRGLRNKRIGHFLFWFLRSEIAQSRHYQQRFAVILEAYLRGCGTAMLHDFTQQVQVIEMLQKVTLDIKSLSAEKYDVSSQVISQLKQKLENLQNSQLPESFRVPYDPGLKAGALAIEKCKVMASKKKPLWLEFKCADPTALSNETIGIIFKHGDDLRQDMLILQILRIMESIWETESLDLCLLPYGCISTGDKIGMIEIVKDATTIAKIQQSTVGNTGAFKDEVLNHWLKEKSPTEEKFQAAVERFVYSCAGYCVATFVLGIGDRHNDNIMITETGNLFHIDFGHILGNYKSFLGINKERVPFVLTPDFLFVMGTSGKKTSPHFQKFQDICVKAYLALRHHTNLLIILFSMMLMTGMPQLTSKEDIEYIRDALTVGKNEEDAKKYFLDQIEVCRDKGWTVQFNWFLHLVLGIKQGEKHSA
Chain of recombinant human PI3Kδ (6-His(p110-p85α)) (O00329 whole entry): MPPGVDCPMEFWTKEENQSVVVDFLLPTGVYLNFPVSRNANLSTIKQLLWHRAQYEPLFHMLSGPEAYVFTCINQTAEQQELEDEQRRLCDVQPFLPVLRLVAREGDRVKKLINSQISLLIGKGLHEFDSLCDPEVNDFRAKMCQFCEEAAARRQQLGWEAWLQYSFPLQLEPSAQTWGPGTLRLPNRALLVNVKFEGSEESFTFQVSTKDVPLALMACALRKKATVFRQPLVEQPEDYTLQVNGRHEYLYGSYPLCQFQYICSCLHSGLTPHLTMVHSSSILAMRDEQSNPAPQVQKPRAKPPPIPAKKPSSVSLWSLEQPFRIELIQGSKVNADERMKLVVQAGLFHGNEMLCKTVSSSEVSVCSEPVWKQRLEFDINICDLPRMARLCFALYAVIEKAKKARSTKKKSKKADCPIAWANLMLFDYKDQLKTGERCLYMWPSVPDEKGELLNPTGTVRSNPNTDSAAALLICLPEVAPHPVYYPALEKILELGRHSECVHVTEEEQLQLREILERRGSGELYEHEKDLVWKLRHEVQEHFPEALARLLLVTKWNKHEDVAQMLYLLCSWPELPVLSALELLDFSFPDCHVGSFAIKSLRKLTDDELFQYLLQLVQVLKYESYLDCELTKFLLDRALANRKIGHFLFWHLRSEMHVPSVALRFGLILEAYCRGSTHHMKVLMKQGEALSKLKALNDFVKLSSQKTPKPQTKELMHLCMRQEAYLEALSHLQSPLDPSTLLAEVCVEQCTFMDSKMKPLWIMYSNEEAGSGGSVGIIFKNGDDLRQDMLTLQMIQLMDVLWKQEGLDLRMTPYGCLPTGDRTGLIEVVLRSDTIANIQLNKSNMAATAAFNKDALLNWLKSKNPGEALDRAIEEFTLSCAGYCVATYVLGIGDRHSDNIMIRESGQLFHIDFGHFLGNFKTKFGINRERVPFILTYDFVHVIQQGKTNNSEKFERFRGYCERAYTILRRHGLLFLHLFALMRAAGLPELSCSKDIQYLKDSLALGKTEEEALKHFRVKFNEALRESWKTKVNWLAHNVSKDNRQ
Chain of recombinant human PI3Kδ (6-His(p110-p85α)) (P27986 whole entry partner): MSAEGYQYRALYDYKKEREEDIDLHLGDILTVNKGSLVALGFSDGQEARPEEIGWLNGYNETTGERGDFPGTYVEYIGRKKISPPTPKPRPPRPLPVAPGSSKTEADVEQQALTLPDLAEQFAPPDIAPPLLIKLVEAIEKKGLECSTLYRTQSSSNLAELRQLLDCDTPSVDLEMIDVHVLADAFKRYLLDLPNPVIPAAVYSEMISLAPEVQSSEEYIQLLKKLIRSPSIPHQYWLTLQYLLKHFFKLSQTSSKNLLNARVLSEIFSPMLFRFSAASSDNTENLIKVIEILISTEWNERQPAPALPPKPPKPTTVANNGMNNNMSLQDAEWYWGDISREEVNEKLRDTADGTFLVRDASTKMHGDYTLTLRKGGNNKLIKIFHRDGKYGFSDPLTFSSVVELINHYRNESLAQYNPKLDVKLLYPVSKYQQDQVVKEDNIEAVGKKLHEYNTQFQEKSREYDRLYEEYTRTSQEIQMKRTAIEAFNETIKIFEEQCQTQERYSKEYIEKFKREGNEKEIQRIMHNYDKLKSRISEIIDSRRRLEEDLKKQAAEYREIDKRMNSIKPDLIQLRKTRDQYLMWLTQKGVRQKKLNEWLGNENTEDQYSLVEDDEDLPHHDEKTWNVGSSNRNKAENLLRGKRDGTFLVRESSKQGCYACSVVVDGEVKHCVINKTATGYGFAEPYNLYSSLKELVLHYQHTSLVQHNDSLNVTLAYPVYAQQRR
Chain of recombinant human PI3Kα (6-His(p110-p85α)) (P42336 whole entry): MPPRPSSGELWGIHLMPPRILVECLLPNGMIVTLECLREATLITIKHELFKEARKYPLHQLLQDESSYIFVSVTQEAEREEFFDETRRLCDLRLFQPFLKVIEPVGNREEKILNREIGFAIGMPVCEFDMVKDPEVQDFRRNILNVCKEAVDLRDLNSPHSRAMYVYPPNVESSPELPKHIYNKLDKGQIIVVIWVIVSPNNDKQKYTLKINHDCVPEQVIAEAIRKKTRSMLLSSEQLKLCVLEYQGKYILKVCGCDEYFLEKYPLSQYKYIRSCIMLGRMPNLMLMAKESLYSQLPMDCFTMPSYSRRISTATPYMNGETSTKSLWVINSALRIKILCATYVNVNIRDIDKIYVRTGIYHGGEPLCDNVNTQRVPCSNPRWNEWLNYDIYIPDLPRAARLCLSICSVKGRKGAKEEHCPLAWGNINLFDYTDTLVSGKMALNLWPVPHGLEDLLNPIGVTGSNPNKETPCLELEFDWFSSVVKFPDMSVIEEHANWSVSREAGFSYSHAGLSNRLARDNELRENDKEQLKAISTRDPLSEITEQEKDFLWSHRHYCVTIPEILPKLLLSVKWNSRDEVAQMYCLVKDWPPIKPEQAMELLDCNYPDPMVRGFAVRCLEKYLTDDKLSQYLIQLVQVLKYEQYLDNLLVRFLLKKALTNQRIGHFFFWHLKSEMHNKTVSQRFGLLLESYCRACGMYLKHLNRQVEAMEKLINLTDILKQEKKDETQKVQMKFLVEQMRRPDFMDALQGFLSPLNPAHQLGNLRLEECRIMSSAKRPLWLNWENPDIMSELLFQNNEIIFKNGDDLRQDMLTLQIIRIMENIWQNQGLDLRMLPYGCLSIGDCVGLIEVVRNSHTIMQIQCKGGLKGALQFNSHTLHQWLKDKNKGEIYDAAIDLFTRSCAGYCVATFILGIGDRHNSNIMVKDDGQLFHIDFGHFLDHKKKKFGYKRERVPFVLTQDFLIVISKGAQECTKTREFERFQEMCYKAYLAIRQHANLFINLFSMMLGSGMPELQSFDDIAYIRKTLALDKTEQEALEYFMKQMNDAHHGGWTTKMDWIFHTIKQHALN
Chain of recombinant human PI3Kα (6-His(p110-p85α)) (P27986 whole entry partner): as the sequence (P27986 whole entry partner) above
Chain of recombinant human PI3Kβ (6-His(p110-p85α)) (P42338 whole entry): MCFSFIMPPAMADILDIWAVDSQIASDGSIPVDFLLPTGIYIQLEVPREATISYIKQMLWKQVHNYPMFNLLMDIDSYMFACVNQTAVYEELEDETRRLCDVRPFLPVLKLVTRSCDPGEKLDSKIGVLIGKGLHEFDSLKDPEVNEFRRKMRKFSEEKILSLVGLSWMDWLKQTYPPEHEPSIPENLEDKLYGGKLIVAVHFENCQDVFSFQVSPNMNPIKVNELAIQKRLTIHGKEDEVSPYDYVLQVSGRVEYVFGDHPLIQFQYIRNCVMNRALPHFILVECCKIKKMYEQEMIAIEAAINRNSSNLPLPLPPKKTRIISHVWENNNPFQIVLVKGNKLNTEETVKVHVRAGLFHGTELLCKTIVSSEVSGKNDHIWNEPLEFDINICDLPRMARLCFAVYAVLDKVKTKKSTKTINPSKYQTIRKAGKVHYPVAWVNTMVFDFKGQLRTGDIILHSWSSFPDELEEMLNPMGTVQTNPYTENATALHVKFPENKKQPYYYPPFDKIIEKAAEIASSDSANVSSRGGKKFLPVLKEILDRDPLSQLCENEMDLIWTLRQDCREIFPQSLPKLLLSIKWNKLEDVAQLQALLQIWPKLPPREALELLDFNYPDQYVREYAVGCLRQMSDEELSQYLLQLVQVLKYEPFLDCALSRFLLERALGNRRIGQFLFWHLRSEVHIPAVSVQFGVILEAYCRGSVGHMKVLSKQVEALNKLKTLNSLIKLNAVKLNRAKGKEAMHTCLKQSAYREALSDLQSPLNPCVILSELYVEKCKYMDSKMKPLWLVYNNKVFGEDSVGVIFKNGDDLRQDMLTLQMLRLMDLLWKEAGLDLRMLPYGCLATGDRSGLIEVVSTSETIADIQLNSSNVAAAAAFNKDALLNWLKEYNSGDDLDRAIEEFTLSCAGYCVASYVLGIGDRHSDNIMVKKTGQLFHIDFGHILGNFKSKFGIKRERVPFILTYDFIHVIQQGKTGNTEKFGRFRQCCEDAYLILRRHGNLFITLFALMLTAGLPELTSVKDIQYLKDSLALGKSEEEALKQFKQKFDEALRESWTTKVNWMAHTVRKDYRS
Chain of recombinant human PI3Kβ (6-His(p110-p85α)) (P27986 whole entry partner): as the sequence (P27986 whole entry partner) above

| SMILES | IC50 [1] [nM] | IC50 [2] [nM] | IC50 [3] [nM] | IC50 [4] [nM] |
| --- | --- | --- | --- | --- |
| Cc1nc(Nc2cccc(N3CCCC3=O)n2)sc1-c1cc2c(c(S(C)(=O)=O)c1)C(=O)N([C@@H](C)C1CC1)C2 [Example 1, 2-[(1S)-1-Cyclopropylethyl]-5-(4-methyl-2-{[6-(2-oxopyrrolidin-1-yl)pyridin-2-yl]amino}-1,3-thiazol-5-yl)-7-(methylsulfonyl)-2,3-dihydro-1H-isoindol-1-one] | 0.7 | 1360 | 55 | 0.9 |
| CC(=O)Nc1cccc(Nc2nc(C)c(-c3cc4c(c(S(C)(=O)=O)c3)C(=O)N([C@@H](C)C3CC3)C4)s2)n1 [Example 2, N-{6-[(5-{2-[(1S)-1-Cyclopropylethyl]-7-(methylsulfonyl)-1-oxo-2,3-dihydro-1H-isoindol-5-yl}-4-methyl-1,3-thiazol-2-yl)amino]pyridin-2-yl}acetamide] | 19.6 | 3730 | 263 | 0.9 |
| CC(=O)N(C)c1cccc(Nc2nc(C)c(-c3cc4c(c(S(C)(=O)=O)c3)C(=O)N([C@@H](C)C3CC3)C4)s2)n1 [Example 3, N-{6-[(5-{2-[(1S)-1-Cyclopropylethyl]-7-(methylsulfonyl)-1-oxo-2,3-dihydro-1H-isoindol-5-yl}-4-methyl-1,3-thiazol-2-yl)amino]pyridin-2-yl}-N-methylacetamide] | 1.4 | 1180 | 127 | 0.8 |
| CNS(=O)(=O)c1cc(-c2sc(Nc3cccc(N4CCCNCC4=O)n3)nc2C)cc2c1C(=O)N([C@@H](C)C1CC1)C2 [Example 52, 2-[(1S)-1-Cyclopropylethyl]-N-methyl-6-(4-methyl-2-{[6-(2-oxo-1,4-diazepan-1-yl)pyridin-2-yl]amino}-1,3-thiazol-5-yl)-3-oxo-2,3-dihydro-1H-isoindole-4-sulfonamide] | 18.9 |  |  | 22.5 |

Continued by falling IC50 [2], values first:

| IC50 [1] [nM] | IC50 [2] [nM] | IC50 [3] [nM] | IC50 [4] [nM] | SMILES |
| --- | --- | --- | --- | --- |
|  | 688 | 57 | 0.9 | Cc1nc(Nc2cccc(N3CCOCC3=O)n2)sc1-c1cc2c(c(S(C)(=O)=O)c1)C(=O)N([C@@H](C)C1CC1)C2 [Example 7, 2-[(1S)-1-Cyclopropylethyl]-5-(4-methyl-2-{[6-(3-oxomorpholin-4-yl)pyridin-2-yl]amino}-1,3-thiazol-5-yl)-7-(methylsulfonyl)-2,3-dihydro-1H-isoindol-1-one] |
|  | 596 | 85 | 0.8 | Cc1nc(Nc2cccc(N3CCOCC3=O)n2)sc1-c1cc2c(c(S(=O)(=O)NC3COC3)c1)C(=O)N([C@@H](C)C1CC1)C2 [Example 31, 2-[(1S)-1-Cyclopropylethyl]-6-(4-methyl-2-{[6-(3-oxomorpholin-4-yl)pyridin-2-yl]amino}-1,3-thiazol-5-yl)-N-(oxetan-3-yl)-3-oxo-2,3-dihydro-1H-isoindole-4-sulfonamide] |
|  | 575 | 78 | 0.9 | Cc1nc(Nc2cccc(N3CCCC3=O)n2)sc1-c1cc2c(c(S(C)(=O)=O)c1)C(=O)N([C@@H](C)C(F)(F)F)C2 [Example 10, 5-(4-Methyl-2-{[6-(2-oxopyrrolidin-1-yl)pyridin-2-yl]amino}-1,3-thiazol-5-yl)-7-(methylsulfonyl)-2-[(2S)-1,1,1-trifluoropropan-2-yl]-2,3-dihydro-1H-isoindol-1-one] |
|  | 250 | 16 | 1 | Cc1nc(Nc2cccc(N3CCCCC3=O)n2)sc1-c1cc2c(c(S(C)(=O)=O)c1)C(=O)N([C@@H](C)C1CC1)C2 [Example 4, 2-[(1S)-1-Cyclopropylethyl]-5-(4-methyl-2-{[6-(2-oxopiperidin-1-yl)pyridin-2-yl]amino}-1,3-thiazol-5-yl)-7-(methylsulfonyl)-2,3-dihydro-1H-isoindol-1-one] |
|  | 168 | 18 |  | CNS(=O)(=O)c1cc(-c2sc(Nc3cccc(N4CCCCC4=O)n3)nc2C)cc2c1C(=O)N([C@@H](C)C1CC1)C2 [Example 19, 2-[(1S)-1-Cyclopropylethyl]-N-methyl-6-(4-methyl-2-{[6-(2-oxopiperidin-1-yl)pyridin-2-yl]amino}-1,3-thiazol-5-yl)-3-oxo-2,3-dihydro-1H-isoindole-4-sulfonamide] |
